For eight compounds, viability, T/C and IC50 results are on record in PubChem BioAssay AID2060605 (Molecular Pharmacology Branch, DTP, NCI, 2025).

The experiment concerns 947758-054-R-J2-PDC spheroid growth, percent test/control. Briefly: Anticancer human tumor 947758-054-R-J2-PDC patient-derived colon adenocarcinoma cell line growth inhibition [CLK]. As to conditions: spheroids with HUVEC and MSC; for viability, T/C: stronger effect = lower value; for IC50: curve of compound. An excerpt:
A high-throughput screen of multi-cell type tumor spheroids was designed to identify active combinations of […] and targeted small molecules. Complex spheroids include a stromal component modeled by human endothelial cells (HUVEC) and fibroblasts modeled by human mesenchymal stem cells (MSCs). The concentration ranges selected for each drug and investigational agent were based upon clinically achievable concentrations if the clinical Cmax of the agent was known.
Compounds. The drugs and investigational agents: cirtuvivint (SM08502; NSC835563), CC-671 (NSC850746), vemurafenib (NSC761431), tapotoclax (NSC804041), sotorasib (NSC818433), adagrasib (NSC831453), MRTX-1133 (NSC836407), BAY2416964 (NSC825713), copanlisib (NSC816437), inavolisib (NSC800729), abemaciclib (NSC768073), osimertinib (NSC779217), entinostat (NSC756642), eltanexor (KPT-8602, NSC794443), venetoclax (NSC766270), ceralasertib (NSC777638), bortezomib (NSC756655), olaparib (NSC753686), talazoparib (NSC767125), alisertib (NSC759677), peposertib (NSC802822), gemcitabine (NSC613327), 5-fluorouracil (NSC19893), SN-38 (NSC673596), oxaliplatin (NSC266046), paclitaxel (NSC125973), and doxorubicin (NSC123127), were obtained from the National Cancer Institute (NCI) Developmental Therapeutics Program Chemical Repository. The FDA-approved anticancer drug set is available from the Developmental Therapeutics Program at https://dtp.cancer.gov/organization/dscb/obtaining/available plates.htm. […] The stock solutions were prepared in dimethyl sulfoxide (DMSO, Sigma-Aldrich, St. Louis, MO, cat. D2650), except for the platinum complexes which were prepared in saline (Quality Biological, Gaithersburg, MD, cat. 114-055-101), at 800-fold the tested concentration and stored at -70 degrees C prior to their use. All drugs and investigational agents were tested over a range starting from a high concentration at or near the clinical Cmax and decreasing in half-log increments. If the clinical Cmax for an agent had not been determined, the highest concentration tested was 10 microM.
Cell Culture. All cells were maintained in an incubator at 37 degrees C and 5% CO2 with 95% humidity. The PDC lines were cultured according to standard operating procedures established by the NCI PDMR. Briefly, all PDCs were thawed and cultured in Matrigel-coated flasks prepared with a working solution of 1X Ham's F-12 nutrient mix, without supplementation (Invitrogen, Waltham, MA, cat. 11765054), 100 U/mL penicillin-streptomycin (Invitrogen, cat. 15140122), and 2.5% Matrigel (Corning Inc., Corning, NY, cat. 354248) for the first three passages. The 947758-054-R-J2-PDC line was cultured in 6B/Colon 1A media, which includes advanced DMEM/F-12 (Thermo Fisher Scientific, cat. 12634028), 10 mM HEPES (Thermo Fisher Scientific, cat. 15630080), 1X GlutaMAX supplement (Thermo Fisher Scientific, cat. 35050061), 0.1 mg/mL primocin (InvivoGen, cat. ant-pm-2), 10% defined fetal bovine serum, heat inactivated (HyClone Laboratories Inc., cat. SH30070.03HI), 1.25 mM N-Acetyl-L-cysteine (Sigma-Aldrich, cat. A9165), 10 mM nicotinamide (Sigma-Aldrich, cat. N0636), 1X B-27 supplement (Thermo Fisher Scientific, cat. 17504044), 1X N-2 supplement (Thermo Fisher Scientific, cat. 17502048), and 10 microM Y-27632 dihydrochloride (Tocris Bioscience, cat. 1254). The 876862-298-R-J1-PDC was cultured in 6E media, which includes all 6B/Colon 1A media components plus 50% L-WRN conditioned media (ATCC, cat. CRL-3276), 50 ng/mL recombinant human EGF recombinant protein (hEGF; Thermo Fisher Scientific, cat. PHG0311), 10 ng/mL recombinant human fibroblast growth factor 10 (hGFG-10; PeproTech, cat. 100-26), 1 ng/mL recombinant human fibroblast growth factor 2 (hFGF-2; PeproTech, cat. 100-18B), and 1 µM prostaglandin E2 (PGE2; Tocris, cat. 2296). The 227483-062-R1-J1-PDC line was cultured in Panc media, containing all 6E components except hFGF-2, with the addition of 500 nM SB-431542 (Selleckchem, cat. S1067) and 10 nM gastrin (Tocris, cat. 3006). […]

“And” between values parts separate entries of the source, which are not always exact repeats. Equal entries are not always repeated.
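Further: spheroids exposed to compounds for one week before readout.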
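Wherever viability, T/C is given: 100% = DMSO vehicle control wells.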

The viability, T/C is the result in the treated group divided by that in the control group, in per cent. For orientation: IC50 means the concentration at which inhibition is half-maximal. On to `C#Cc1c(F)ccc2cc(O)cc(-c3ncc4c(N5CC6CCC(C5)N6)nc(OCC56CCCN5CC(F)C6)nc4c3F)c12` (stereo unspecified), for which the IC50 was over 10 µM. Where the note is “compound 0.0316 µM”, the viability, T/C is 97% and 82.7%. For the same compound, for the setting “compound 0.1 µM”, the viability, T/C is 90.4% and 83.7%. Moreover, where the note is “compound 0.316 µM”, the viability, T/C was 100% and 88%. The viability, T/C (compound 1 µM) is 80% and 85.2%. For the same compound, the viability, T/C (compound 3.16 µM) is 87.3% and 82.6%. Besides, the viability, T/C (compound 10 µM) is 87.5% and 88%.
With `C=C(F)C(=O)N1CCN(c2nc(OCC3CCCN3C)nc3c2CCN(c2cccc4cccc(Cl)c24)C3)CC1CC#N` (stereo unspecified), the IC50 was 6.6 µM and 6.47 µM. Moreover, under “compound 0.0316 µM”, the viability, T/C is 97% and 92.3%. For the same compound, the viability, T/C (compound 0.1 µM) is 89.9% and 87.2%. Moreover, under “compound 0.316 µM”, the viability, T/C was 87% and 84%. Also, the viability, T/C (compound 1 µM) is 95.5% and 86.5%. For the same compound, where the note is “compound 3.16 µM”, the viability, T/C was 144% and 135%. Further, where the note is “compound 10 µM”, the viability, T/C is 20% and 21.4%.
As for `C=CC(=O)N1CCN(c2nc(=O)n(-c3c(C)ccnc3C(C)C)c3nc(-c4c(O)cccc4F)c(F)cc23)C(C)C1` (stereo unspecified), the IC50 is over 10 µM. Besides, under “compound 0.0316 µM”, the viability, T/C is 115% and 77.6%. Further, the viability, T/C (compound 0.1 µM) is 77.8% and 82.6%. In addition, the viability, T/C (compound 0.316 µM) is 106% and 101%. Further, where the note is “compound 1 µM”, the viability, T/C was 75.6% and 75%. Moreover, the viability, T/C (compound 3.16 µM) is 81.2% and 90.3%. Further, the viability, T/C (compound 10 µM) is 94.7% and 77.3%.
Consider `C=CC(=O)Nc1cc(Nc2nccc(-c3cn(C)c4ccccc34)n2)c(OC)cc1N(C)CCN(C)C`, for which the IC50 is over 0.3 µM. The viability, T/C (compound 0.000949 µM) was 85.6% and 108%. In addition, the viability, T/C (compound 0.003 µM) was 62.3% and 94.7%. Besides, the viability, T/C (compound 0.00949 µM) is 90.8% and 103%. For the setting “compound 0.03 µM”, the viability, T/C is 94.7% and 69.1%. The viability, T/C (compound 0.0949 µM) was 74.3% and 92.2%. For the same compound, under “compound 0.3 µM”, the viability, T/C is 87.2% and 78.5%.
Take `CC(C)CC(NC(=O)C(Cc1ccccc1)NC(=O)c1cnccn1)B(O)O` (stereo unspecified): the concentration for half-maximal inhibition (IC50) is 0.0016 µM and 0.00154 µM. The viability, T/C (compound 0.000949 µM) was 89.3% and 86%. In addition, the viability, T/C (compound 0.003 µM) was 2.43% and 0.8%. The viability, T/C (compound 0.00949 µM) is 0.17% and 0.23%. Where the note is “compound 0.03 µM”, the viability, T/C is 0.24% and 0.3%. Also, for the setting “compound 0.0949 µM”, the viability, T/C is 0.19% and 0.27%. The viability, T/C (compound 0.3 µM) is 0.24% and 0.28%.
For the compound `CC(CO)NC(=O)c1cc(-c2ccc(Cl)cc2)nn(-c2cnn(C)c2)c1=O` (stereo unspecified), the IC50 was over 10 µM. For the same compound, the viability, T/C (compound 0.0316 µM) is 92.8% and 77.6%. In addition, where the note is “compound 0.1 µM”, the viability, T/C is 84.2% and 87.1%. Also, the viability, T/C (compound 0.316 µM) was 94.1% and 107%. The viability, T/C (compound 1 µM) is 97.6% and 75.3%. Further, the viability, T/C (compound 3.16 µM) was 108% and 92.3%. Besides, the viability, T/C (compound 10 µM) is 112% and 114%.
As for `CC(Nc1ccc2c(c1)OCCn1cc(N3C(=O)OCC3C(F)F)nc1-2)C(N)=O` (stereo unspecified), the IC50 was over 10 µM. Besides, where the note is “compound 0.0316 µM”, the viability, T/C was 106% and 109%. Moreover, for the setting “compound 0.1 µM”, the viability, T/C is 96.5% and 102%. Where the note is “compound 0.316 µM”, the viability, T/C is 99.4% and 98.8%. Also, the viability, T/C (compound 1 µM) was 93% and 85.2%. In addition, the viability, T/C (compound 3.16 µM) was 92.2% and 93.3%. Besides, for the setting “compound 10 µM”, the viability, T/C is 93.6% and 88.5%.
Turning to `CCCS(=O)(=O)Nc1ccc(F)c(C(=O)c2c[nH]c3ncc(-c4ccc(Cl)cc4)cc23)c1F`, the IC50 was over 10 µM. For the same compound, the viability, T/C (compound 0.0316 µM) was 81.8% and 79.5%. Further, the viability, T/C (compound 0.1 µM) was 79.8% and 65%. The viability, T/C (compound 0.316 µM) is 79.4% and 71%. The viability, T/C (compound 1 µM) was 77.4% and 68.7%. Further, the viability, T/C (compound 3.16 µM) was 83.3% and 76.3%. For the same compound, the viability, T/C (compound 10 µM) is 80.2% and 70.7%.
